Reference: ChEMBL document CHEMBL4368926, “Arylpyridines, arylpyrimidines and related compounds as potential modulator agents of the VEGF, hTERT and c-Myc oncogenes” (Bioorg Med Chem, 2019)

Assays:
HT-29 [1] = assay: Down-regulation of c-Myc protein expression in human HT-29 cells assessed as c-Myc protein level at 10 uM after 48 hrs by ELISA (reference value: 100%); format: functional
HT-29 [2] = assay: Down-regulation of VEGFA protein expression in human HT-29 cells assessed as VEGFA protein level at 10 uM after 48 hrs by ELISA (reference value: 100%); format: functional
[3] = Selectivity index, ratio of IC50 for HEK293 cells to IC50 for human HT-29 cells; format: toxicity; settings: HEK293 cells versus HT-29 cells, read-out: Ratio IC50
HEK293 = assay: Cytotoxicity against HEK293 cells assessed as decrease in cell viability after 2 days by MTT assay; format: ADME, cell-based; settings: Homo sapiens, HEK293, 48 h
HT-29 [4] = assay: Down-regulation of hTERT mRNA expression in human HT-29 cells assessed as hTERT mRNA level at 10 uM after 48 hrs by RT-qPCR analysis (reference value: 100%); format: functional
[5] = Selectivity index, ratio of IC50 for HEK293 cells to IC50 for human MCF7 cells; settings: HEK293 cells versus MCF7 cells
HT-29 [6] = assay: Down-regulation of c-Myc mRNA expression in human HT-29 cells assessed as c-Myc mRNA level at 10 uM after 48 hrs by RT-qPCR analysis (reference value: 100%); format: functional
MCF7 = assay: Cytotoxicity against human MCF7 cells assessed as decrease in cell viability after 2 days by MTT assay; format: functional, cell-based; settings: MCF7, 48 h
HT-29 [7] = assay: Down-regulation of VEGFRA mRNA expression in human HT-29 cells assessed as VEGFRA mRNA level at 10 uM after 48 hrs by RT-qPCR analysis (reference value: 100%); format: functional
HT-29 [8] = assay: Cytotoxicity against human HT-29 cells assessed as decrease in cell viability after 2 days by MTT assay; format: functional, cell-based; settings: HT-29, 48 h

In the case of `COc1cccc(N2CCCCC2)c1`, the Activity (HT-29 [1]) is reported as 100%, the Activity (HT-29 [2]) is reported as 42% and the selectivity ratio [3] is reported as 20. The IC50 (HEK293) was over 400 µM, the Activity (HT-29 [4]) was 30% and the selectivity ratio [5] was 3. The Activity (HT-29 [6]) was 63%, the IC50 (MCF7) was 160 µM and the Activity (HT-29 [7]) was 44%. For the same compound, the IC50 (HT-29 [8]) was 26 µM.
